Where “and” joins values, the source holds several entries; their conditions need not be identical. Identical values can stand only once.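 In this assay, cells in 96-well plates receive the compound at five concentrations for 48 hours. Endpoints are linearly interpolated between the surrounding concentrations. Here, GI50 denotes the concentration required for 50% inhibition of growth. At the TGI there is no net growth.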
Columns and labels:
Assay in all cases: inhibition of tumour cell growth, NCI panel, 48 h
IGROV1 ovarian = system: IGROV1 ovarian
SF-295 CNS = system: SF-295 CNS
LOX IMVI melanoma = system: LOX IMVI melanoma
SR leukemia = system: SR leukemia
OVCAR-3 ovarian = system: OVCAR-3 ovarian
DU-145 prostate = system: DU-145 prostate
OVCAR-4 ovarian = system: OVCAR-4 ovarian
KM12 colon = system: KM12 colon
SNB-75 CNS = system: SNB-75 CNS
HCT-116 colon = system: HCT-116 colon

| SMILES | GI50 (IGROV1 ovarian) | TGI (IGROV1 ovarian) [µM] | GI50 (SF-295 CNS) | GI50 (LOX IMVI melanoma) | TGI (LOX IMVI melanoma) [µM] | GI50 (SR leukemia) | GI50 (OVCAR-3 ovarian) | TGI (OVCAR-3 ovarian) | GI50 (DU-145 prostate) | GI50 (OVCAR-4 ovarian) | TGI (OVCAR-4 ovarian) [µM] | GI50 (KM12 colon) | TGI (KM12 colon) [µM] | GI50 (SNB-75 CNS) [µM] | TGI (SNB-75 CNS) [µM] | GI50 (HCT-116 colon) | TGI (SF-295 CNS) [µM] | TGI (SR leukemia) [µM] | TGI (DU-145 prostate) [µM] | TGI (HCT-116 colon) [µM] |
| --- | --- | --- | --- | --- | --- | --- | --- | --- | --- | --- | --- | --- | --- | --- | --- | --- | --- | --- | --- | --- |
| COc1ccc(C(=O)c2cc3c(N)c(C(=O)Nc4cccc(Br)c4C)sc3nc2C)cc1 | 0.0869 µM | > 100 | 0.0405 µM | 0.0615 µM | > 100 | 0.0354 µM | 0.0394 µM | 1.05 µM | 0.194 µM | 0.474 µM | > 100 | 0.0684 µM | > 36.3 | 0.0405 | > 100 | 0.038 µM | – | – | – | – |
| N#Cc1nc(C#N)c(Sc2ccccc2)c(Sc2ccccc2)c1Sc1ccccc1 | 0.732 µM | 2.3 | 2.75 µM | 0.17 µM | 0.344 | 0.305 µM | 1.45 µM | 2.89 µM | 0.667 µM | 2.74 µM | > 27.8 | 1.67 µM | 3.26 | 2.42 | > 29.3 | 0.301 µM | > 29.1 | > 100 | 2.88 | – |
| CC(=O)/C(Br)=C/c1ccc(Br)o1 | 10.2 µM | 29.2 | 18.7 µM | 4.35 µM | 14.9 | 1.72 µM | 4.16 µM | 14.5 µM | 6.19 µM | 9.35 µM | 22 | 12 µM | 25.9 | 10.3 | 33.3 | 2.13 µM | 38.7 | 5.42 | 18.3 | 5.89 |
| Oc1[nH]c2ccccc2c1/C=c1/ccc2c(c1)N=C(c1ccc(C(F)(F)F)cc1)N=2 | 3.01 µM | 13.3 | 2.7 µM | 1.82 µM | 5.37 | 1.7 µM | 0.74 µM | 3.89 µM | 4.11 µM | 3.94 µM | 15.8 | 1.09 µM | 12.7 | 2.79 | 12.9 | 1.37 µM | 12.2 | 4.54 | 16 | 12.3 |
| CCN(CC)c1ccc(-c2cc(-c3cc(OC)c(OC)c(OC)c3)nc(N3CCC(O)CC3)c2C#N)cc1 | 0.373 µM | > 27.7 | 0.169 µM | 0.0419 µM | 0.172 | 0.399 µM | 1.17 µM | 3.02 µM | 0.877 µM | 0.789 µM | > 100 | 0.512 µM | 2.98 | 0.321 | 3.04 | 0.281 µM | 0.435 | 2.61 | 14.6 | 1.71 |
| O=C(/C=C/c1ccccn1)c1ccc(OCc2nnc(-c3ccc(Cl)cc3)o2)cc1 | 1.96 µM | 3.62 | 1.68 µM | 1.57 µM | 3.01 | 0.291 µM | 1.73 µM | 3.25 µM | 1.62 µM | 3.42 µM | 12.4 | 1.48 µM | 3.3 | 1.46 | 2.89 | 0.45 µM | 3.33 | 1.93 | 3.02 | 1.62 |
| NC(Cc1c[nH]c2ccc([N+](=O)[O-])cc12)C(=O)O (centres undefined) | – | > 100 | – | – | > 100 | – | – | > 100 µM | – | – | > 100 | – | > 100 | – | > 100 | – | > 100 | > 100 | > 100 | > 100 |
| COc1cc([N+](=O)[O-])c(S(=O)(=O)O)cc1-n1nc(C(=O)Nc2ccccc2)n[n+]1-c1cc(S(=O)(=O)[O-])c([N+](=O)[O-])cc1OC | – | > 100 | – | – | > 100 | – | – | > 100 µM | – | – | > 100 | – | > 100 | – | > 100 | – | > 100 | > 100 | > 100 | > 100 |
| COc1ccc(S(=O)(=O)Nc2c(/C=C\c3cc(OC)c(OC)c(OC)c3)ccc(OC)c2O)cc1 | 0.054 µM | > 100 | 0.0339 µM | 0.0455 µM | 49.1 | 0.0319 µM | 0.0338 µM | 1.21 µM | 0.0425 µM | 0.0763 µM | > 100 | 0.0355 µM | > 100 | 0.0255 | 88.8 | 0.032 µM | > 100 | 16.2 | > 100 | > 100 |
| CCCc1nc(Cl)c(Cl)c(Cl)n1 | – | 50.4 | – | – | 17.7 | – | – | 18.7 µM | – | – | 33.4 | – | > 100 | – | > 100 | – | > 100 | > 50.7 | > 100 | 26.8 |
| COc1cc2c(c(OC)c1OC)-c1ccc(SC)c(=O)cc1[C@@H](NC(=O)C(F)(F)F)CC2 | – | > 100 | – | – | > 87.3 | – | – | 1.3 µM | – | – | > 100 | – | < 0.0631 | – | 6.29 | – | < 0.01 | > 100 | > 100 | 4.42 |
| Cc1ccc(Cl)c(NS(=O)(=O)c2ccc(-c3cnc(C4CC4)o3)cc2)c1 | 0.129 µM | > 100 | 0.0377 µM | 0.226 µM | 18.5 | 0.0549 µM | 0.0674 µM | 4.17 µM | 0.288 µM | 2.1 µM | 80.6 | 0.07 µM | 22.4 | 0.0232 | 0.164 | 0.0537 µM | 0.182 | > 63.3 | > 100 | > 36.8 |
| [N-]=[N+]=NCCCn1c2c(c3ccc([N+](=O)[O-])cc3c1=O)C(=O)c1cc(-c3ccccc3)ccc1-2 | > 100 µM | > 100 | > 100 µM | > 100 µM | > 100 | 37.2 µM | > 100 µM | > 100 µM | > 100 µM | > 100 µM | > 100 | > 100 µM | > 100 | 43.3 | > 100 | > 100 µM | > 100 | > 100 | > 100 | > 100 |
| COC1C=COC2(C)Oc3c(C)c(O)c4c(O)c(c(C5SCCS5)c(O)c4c3C2=O)NC(=O)/C(C)=C\C=CC(C)C(O)C(C)C(O)C(C)C(OC(C)=O)C1C (centres undefined) | – | 22.4 | – | – | 4.57 | – | – | 20.4 µM | – | – | 20.5 | – | 30.6 | – | 20.5 | – | 17.6 | 7.14 | 13.1 | 48.7 |
| O=C(c1ccc([N+](=O)[O-])cc1)C(Br)C(Br)c1ccnc2ccccc12 (centres undefined) | – | 30 | – | – | 4.71 | – | – | 23.1 µM | – | – | 25.5 | – | 5.13 | – | 13.1 | – | 21.1 | 5.69 | 24.4 | 4.04 |
| C#C[C@@]1(O)[C@@H](CO)O[C@@H](n2cc(C(F)(F)F)c3c(N)ncnc32)[C@@H]1O | 0.103 µM | > 100 | 2.18 µM | 0.288 µM | 2.98 | 0.306 µM | 0.727 µM | 4.89 µM | 0.433 µM | 2.41 µM | > 100 | 0.365 µM | > 30.4 | 1.12 | 3.42 | 0.363 µM | 8.09 | 1.7 | > 100 | > 100 |
| O=C(NCCOCCOCCOCCNC(=O)c1cc2c(o1)C(=O)c1ccccc1C2=O)NC12CC3CC(CC(C3)C1)C2 | 2.11 µM | 8.53 | 1.65 µM | 0.843 µM | 3.16 | 2.37 µM | 1.41 µM | 4.4 µM | 0.628 µM | 1.02 µM | 2.27 | 3.34 µM | 13 | 2.25 | 4.06 | 2.4 µM | 3.07 | 11.7 | 1.89 | 8.95 |
| CC[C@H](C)[C@H](NC(=O)[C@H]1CCCCN1C)C(=O)N(C)[C@H](C[C@@H](OC(C)=O)c1cccc(C(=O)N[C@@H](Cc2ccccc2)C[C@H](C)C(=O)O)n1)C(C)C | 0.0038 µM and 0.0025 µM | > 25 | 0.00275 µM and < 0.0025 µM | 0.00168 µM and 0.0025 µM | > 25 | 0.000529 µM and 0.0025 µM | 0.000389 µM and < 0.0025 µM | 0.0165 µM and < 0.0025 µM | 0.00286 µM and 0.0025 µM | 0.057 µM and 0.0168 µM | > 25 | 0.00116 µM and 0.0025 µM | > 25 | – | > 25 | 0.00225 µM and 0.0025 µM | < 0.0025 | > 25 | > 25 | 4.16 |
| Cn1c(=O)c(Oc2ccc(F)cc2F)cc2cnc(N[C@@H]3CCOC3)nc21 | > 25 µM | > 25 | > 25 µM | > 25 µM | > 25 | > 25 µM | > 25 µM | > 25 µM | > 25 µM | > 25 µM | > 25 | > 25 µM | > 25 | > 25 | > 25 | > 25 µM | > 25 | > 25 | > 25 | > 25 |

Source: PubChem BioAssay (NCI)
